According to patent US7781452B2, “Imidazopyridine compound” (Eisai R&D Management Co., Ltd., priority 2004, dated 2010):

Columns and labels:
[1] = tested on: CYP1A1; assay: Cytochrome P450 (CYP) gene induction in human cryopreserved hepatocytes, CYP1A1 mRNA; type: in vitro ADME; conditions: for CYP1A1 mRNA induction potency, % of the positive control (100%): 48-hr exposure
Experimental: (§1) Human cryopreserved hepatocytes purchased from In Vitro Technology were quickly thawed at 37° C. After ice-cold William's E (WE) medium supplemented with 10% FCS, penicillin (100 U/mL), streptomycin (100 μg/mL) and glutamine (2 mM) (WE medium) was gradually added to hepatocytes, the cells were centrifuged at 500 rpm for 5 min at 4° C. The supernatant was removed and the cells were resuspended in WE medium to obtain 5×10^5 cells/mL. The cells were plated into collagen-coated 48-well plates (1×10^5 cells/cm^2) and cultured at 37° C. and 5% CO2 for about 24 hr.
(§2) Medium was replaced with Hepato-STIM (trademark, BD Biosciences) supplemented with EGF, penicillin (100 U/mL), streptomycin (100 μg/mL) and glutamine (2 mM) (HS medium) and the cells were cultured for about 24 hr. At about 48 hr of culture after seeding, the cells were treated with the test compounds and β-naphtoflavone (β-NF, positive control for human CYP1A1 and CYP1A2, SIGMA) prepared by HS medium for about 48 hr. Medium was changed daily. The final concentration of β-NF was set to 10 μM. All compounds were dissolved in dimethylsulfoxide (DMSO, Wako), resulting in a final vehicle concentration of 0.1% (v/v). To the control cells, HS medium containing 0.1% DMSO was added.
(§3) After 48-hr exposure, cells were washed once using PBS, and total RNA was purified using Qiagen RNeasy Mini Kit (Qiagen) according to the manufacturer's instruction. Purified total RNA was then used as template for first strand cDNA synthesis. For reverse transcription (RT) reaction, Oligo dT was employed. The RT reaction was carried using TaqMan Reverse Transcription Reagents (Applied Biosystems) at 25° C. for 10 min followed by 60-min reaction at 48° C., and then the enzyme was inactivated at 95° C. for 5 min in Gene Amp PCR System 9700. The resulting cDNA was subjected to polymerase chain reaction (PCR) in ABI7700 Sequence Detection System (Applied Biosystems). For the mRNA analyses of CYP1A1 and GAPDH, SYBR Green PCR Core Reagents kit (Applied Biosystems) was used, and CYP1A2 mRNA was quantified using TaqMan PCR Core Reagents kit (Applied Biosystems).
(§4) The amount of mRNA of CYP1A1 or CYP1A2 was divided by that of GAPDH. Then, the ratio (fold) of the values obtained in test compounds (X) and positive control (P) against that in control was calculated. The induction potency of test compound (%) was obtained by following equation: Induction potency of test compound (%)=100×(X−1)/(P−1) <Results>

[2] = tested on: CYP1A2; assay: Cytochrome P450 (CYP) gene induction in human cryopreserved hepatocytes, CYP1A2 mRNA; type: in vitro ADME; conditions: for CYP1A2 mRNA induction potency, % of the positive control (100%): 48-hr exposure
Experimental: as §1, §2, §3, §4

[3] = tested on: Gastric Acid Secretion in Rats; assay: Inhibitory effects on gastric acid secretion in pylorus-ligated, histamine-stimulated rats; type: in vivo, rat; conditions: male SD rats, 10 mg/kg into the duodenum, histamine 20 mg/kg subcutaneously, eight hours after administration
Experimental: Seven-week-old male SD rats fasted from the day before experiments were used. The rats were subjected to celiotomy along the median line under ether anesthesia, and the pylorus was ligated. Test compounds were dissolved or suspended in 0.5% methyl-cellulose solution (solvent) and prepared the concentration of 5 mg/ml. […] Then the abdomen was sutured. Eight hours after the administration of solvent or test compound, rat was sacrificed and stomach was isolated for the measurement of the volume of gastric juice. After the volume of gastric juice was determined, the acid concentration was measured using 0.25 ml of gastric juice by titration against 0.04 mol/l NaOH solution to pH 7.0. The acid output was calculated as (volume of gastric juice)×(acid concentration). The inhibition rate (%) was calculated according to the formula shown below. The number of animals of each experimental group is four. Inhibition rate (%)=100×(A−B)/A • A: acid output in solvent administered group • B: acid output in test compound administered group

[4] = 10 μM, normalised to GAPDH, vs 0.1% DMSO control

## O=c1cc(-c2ccccc2)oc2ccc3ccccc3c12 [βNF, β-naphtoflavone, reference compound]
[1]; 10 μM
  CYP1A1 mRNA induction potency, % of the positive control (100%): 100%
[1]; [4]
  CYP1A1 mRNA fold induction as compared with control (figures in parentheses): 79.97 fold
[2]; 10 μM
  CYP1A2 mRNA induction potency, % of the positive control (100%): 100%
[2]; [4]
  CYP1A2 mRNA fold induction as compared with control (figures in parentheses): 14.16 fold

## COc1ccnc(C[S+]([O-])c2nc3cc(C)c(OCC(F)(F)F)nc3[n-]2)c1C.[Na+] (stereo not drawn) [Example 2, 2-(((4-Methoxy-3-methyl-2-pyridinyl)methyl]sulfinyl)-6-methyl-5-(2,2,2-trifluoroethoxy)-3H-imidazo[4,5-b]pyridine Sodium salt]
[3]
  Inhibition rate(%) of acid output: 86%

## COc1ccnc(C[S+]([O-])c2nc3cc(C)c(OC)nc3[n-]2)c1C.[Na+] (stereo not drawn) [Example 1, 5-Methoxy-2-(((4-methoxy-3-methyl-2-pyridinyl)methyl)sulfinyl)-6-methyl-3H-imidazo[4,5-b]pyridineSodium salt]
[3]
  Inhibition rate(%) of acid output: 79%
[1]; 0.3 μM
  CYP1A1 mRNA induction potency, % of the positive control (100%): 2.03%
[1]; 1 μM
  CYP1A1 mRNA induction potency, % of the positive control (100%): 8.02%
[1]; 3 μM
  CYP1A1 mRNA induction potency, % of the positive control (100%): 11.27%
[1]; 10 μM
  CYP1A1 mRNA induction potency, % of the positive control (100%): 18.46%
[2]; 0.3 μM
  CYP1A2 mRNA induction potency, % of the positive control (100%): 8.36%
[2]; 1 μM
  CYP1A2 mRNA induction potency, % of the positive control (100%): 12.16%
[2]; 3 μM
  CYP1A2 mRNA induction potency, % of the positive control (100%): 11.78%
[2]; 10 μM
  CYP1A2 mRNA induction potency, % of the positive control (100%): 29.18%

## COc1ccnc(C[S+]([O-])c2nc3cc(C)c(OCC(F)F)nc3[n-]2)c1C.[Na+] (stereo not drawn) [Example 3, 5-(2,2-Difluoroethoxy)-2-(((4-methoxy-3-methyl-2-pyridinyl)methyl)sulfinyl)-6-methyl-3H-imidazo[4,5-b]pyridine Sodium salt]
[3]
  Inhibition rate(%) of acid output: 85%
